Reference: article doi:[…]/2021.10.07.463234v2 (biorxiv, 2021)
Structures can show the parent of a compound that is named as a salt.

Target: SARS-CoV-2 Mac1 (Severe acute respiratory syndrome coronavirus 2, UniProt P0DTD1)
Assay: biochemical
Details: for inhibition at 100 µM: read-out: %inhibition; for %inhibition: 100 µM, inhibitor

SMILES: OC(Cn1cncn1)(Cn1cncn1)c1ccc(F)cc1F [Fluconazole]
- inhibition at 100 µM: 16.6%

SMILES: Nc1nc(=O)[nH]cc1F [Flucytosine]
- inhibition at 100 µM: 0%

SMILES: Nc1nc(F)nc2c1ncn2[C@@H]1O[C@H](CO)[C@@H](O)[C@@H]1O [Fludarabine]
- inhibition at 100 µM: 12.7%

SMILES: CC(=O)OCC(=O)[C@@]1(O)CC[C@H]2[C@@H]3CCC4=CC(=O)CC[C@]4(C)[C@@]3(F)[C@@H](O)C[C@@]21C [Fludrocortisone acetate]
- inhibition at 100 µM: 0%

SMILES: O=C(O)c1ccccc1Nc1cccc(C(F)(F)F)c1 [Flufenamic acid]
- inhibition at 100 µM: 3.41%

SMILES: CCOC(=O)c1ncn2c1CN(C)C(=O)c1cc(F)ccc1-2 [Flumazenil]
- inhibition at 100 µM: 5.44%

SMILES: CC1CCc2cc(F)cc3c(=O)c(C(=O)O)cn1c23 (centres unmarked) [Flumequine]
- inhibition at 100 µM: 0%

SMILES: C[C@@H]1C[C@H]2[C@@H]3C[C@H](F)C4=CC(=O)C=C[C@]4(C)[C@@]3(F)[C@@H](O)C[C@]2(C)[C@@]1(O)C(=O)CO [Flumethasone]
- inhibition at 100 µM: 28.1%

SMILES: Cc1c(Nc2ncccc2C(=O)O)cccc1C(F)(F)F [Flunixin Meglumin]
- inhibition at 100 µM: 0%

SMILES: CC1(C)O[C@@H]2C[C@H]3[C@@H]4C[C@H](F)C5=CC(=O)C=C[C@]5(C)[C@@]4(F)[C@@H](O)C[C@]3(C)[C@]2(C(=O)CO)O1 [Fluocinolone Acetonide]
- inhibition at 100 µM: 0%

SMILES: CC(=O)OCC(=O)[C@@]12OC(C)(C)O[C@@H]1C[C@H]1[C@@H]3C[C@H](F)C4=CC(=O)C=C[C@]4(C)[C@@]3(F)[C@@H](O)C[C@@]12C [Fluocinonide]
- inhibition at 100 µM: 24.1%

SMILES: O=C1OC2(c3ccc(O)cc3Oc3cc(O)ccc32)c2ccccc21 [Fluorescein]
- inhibition at 100 µM: 24.9%

SMILES: CC(=O)O[C@]1(C(C)=O)CC[C@H]2[C@@H]3C[C@H](C)C4=CC(=O)C=C[C@]4(C)[C@@]3(F)[C@@H](O)C[C@@]21C [Fluorometholone Acetate]
- inhibition at 100 µM: 22.8%

SMILES: CC(=O)[C@@]1(O)CC[C@H]2[C@@H]3C[C@H](C)C4=CC(=O)C=C[C@]4(C)[C@@]3(F)[C@@H](O)C[C@@]21C [Fluorometholone]
- %inhibition: 0%

SMILES: O=c1[nH]cc(F)c(=O)[nH]1 [Fluorouracil (5-Fluoracil, 5-FU)]
- inhibition at 100 µM: 0%

SMILES: OCCN1CCN(CC/C=C2/c3ccccc3Sc3ccc(C(F)(F)F)cc32)CC1 [Flupenthixol dihydrochloride]
- inhibition at 100 µM: 12.3%

SMILES: CCOC(=O)Nc1ccc(NCc2ccc(F)cc2)nc1N [Flupirtine maleate]
- inhibition at 100 µM: 4.99%

SMILES: CC(C(=O)O)c1ccc(-c2ccccc2)c(F)c1 (centres unmarked) [Flurbiprofen]
- inhibition at 100 µM: 2.76%

SMILES: CC(C)C(=O)Nc1ccc([N+](=O)[O-])c(C(F)(F)F)c1 [Flutamide]
- inhibition at 100 µM: 0%

SMILES: CCC(=O)O[C@]1(C(=O)SCF)[C@H](C)C[C@H]2[C@@H]3C[C@H](F)C4=CC(=O)C=C[C@]4(C)[C@@]3(F)[C@@H](O)C[C@@]21C [Fluticasone propionate]
- inhibition at 100 µM: 9.66%

SMILES: COCCCC/C(=N\OCCN)c1ccc(C(F)(F)F)cc1 [Fluvoxamine maleate]
- inhibition at 100 µM: 0%

SMILES: Nc1nc(=O)c2nc(CNc3ccc(C(=O)N[C@@H](CCC(=O)O)C(=O)O)cc3)cnc2[nH]1 [Folic acid]
- inhibition at 100 µM: 11.4%

SMILES: Cc1cn[nH]c1 [Fomepizole]
- inhibition at 100 µM: 0%

SMILES: CO[C@H]1O[C@H](COS(=O)(=O)O)[C@@H](O[C@@H]2O[C@@H](C(=O)O)[C@@H](O[C@H]3O[C@H](COS(=O)(=O)O)[C@@H](O[C@@H]4O[C@H](C(=O)O)[C@@H](O[C@H]5O[C@H](COS(=O)(=O)O)[C@@H](O)[C@H](O)[C@H]5NS(=O)(=O)O)[C@H](O)[C@H]4O)[C@H](OS(=O)(=O)O)[C@H]3NS(=O)(=O)O)[C@H](O)[C@H]2OS(=O)(=O)O)[C@H](O)[C@H]1NS(=O)(=O)O [Fondaparinux Sodium]
- inhibition at 100 µM: 0%

SMILES: COc1cc2c(Oc3ccc(NC(=O)C4(C(=O)Nc5ccc(F)cc5)CC4)cc3F)ccnc2cc1OCCCN1CCOCC1 [Foretinib (GSK1363089)]
- inhibition at 100 µM: 0%

SMILES: C[C@]12CCC(=O)C(O)=C1CC[C@@H]1[C@@H]2CC[C@]2(C)C(=O)CC[C@@H]12 [Formestane]
- inhibition at 100 µM: 0%

SMILES: C[C@@H](O[C@H]1OCCN(Cc2nn(P(=O)(O)O)c(=O)[nH]2)[C@H]1c1ccc(F)cc1)c1cc(C(F)(F)F)cc(C(F)(F)F)c1 [Fosaprepitant dimeglumine salt]
- inhibition at 100 µM: 3%

SMILES: O=C(O)P(=O)(O)O [Foscarnet Sodium]
- inhibition at 100 µM: 2.46%

SMILES: C[C@@H]1O[C@@H]1P(=O)(O)O [Fosfomycin Disodium]
- inhibition at 100 µM: 0%

SMILES: O=C(O)c1ccccc1OP(=O)(O)O [Fosfosal]
- inhibition at 100 µM: 4.81%

SMILES: CCC(=O)O[C@@H](O[P@](=O)(CCCCc1ccccc1)CC(=O)N1C[C@H](C2CCCCC2)C[C@H]1C(=O)O)C(C)C [Fosinopril Sodium]
- inhibition at 100 µM: 0%

SMILES: COc1cc(Nc2ncc(F)c(Nc3ccc4c(n3)N(COP(=O)(O)O)C(=O)C(C)(C)O4)n2)cc(OC)c1OC [Fostamatinib (R788)]
- %inhibition: 0%

SMILES: N[C@@H](CSCCCO)C(=O)O [Fudosteine]
- inhibition at 100 µM: 0%

SMILES: C[C@]12CC[C@@H]3c4ccc(O)cc4C[C@@H](CCCCCCCCC[S+]([O-])CCCC(F)(F)C(F)(F)F)[C@H]3[C@@H]1CC[C@@H]2O (some centres unmarked) [Fulvestrant]
- inhibition at 100 µM: 1.46%

SMILES: CO[C@@H]1[C@H](OC(=O)/C=C/C=C/C=C/C=C/C(=O)O)CC[C@]2(CO2)[C@H]1[C@@]1(C)O[C@@H]1CC=C(C)C [Fumagillin]
- inhibition at 100 µM: 23.6%

SMILES: O=C(O)/C=C/C(=O)O [Fumaric acid]
- inhibition at 100 µM: 1.89%

SMILES: O=C1OC(CN2CCOCC2)CN1/N=C/c1ccc([N+](=O)[O-])o1 (centres unmarked) [Furaltadone HCl]
- inhibition at 100 µM: 15.8%

SMILES: O=C1OCCN1/N=C/c1ccc([N+](=O)[O-])o1 [Furazolidone]
- inhibition at 100 µM: 0%

SMILES: NS(=O)(=O)c1cc(C(=O)O)c(NCc2ccco2)cc1Cl [Furosemide]
- inhibition at 100 µM: 0%

SMILES: CC(=O)O[C@H]1C[C@@]2(C)[C@@H](C[C@@H](O)[C@H]3[C@@]4(C)CC[C@@H](O)[C@@H](C)[C@@H]4CC[C@@]32C)/C1=C(\CCC=C(C)C)C(=O)O [Fusidate Sodium]
- inhibition at 100 µM: 3.17%

SMILES: NCC1(CC(=O)O)CCCCC1 [Gabapentin]
- inhibition at 100 µM: 0%

SMILES: COc1ccc2c3c1O[C@H]1C[C@@H](O)C=C[C@@]31CCN(C)C2 [Galanthamine HBr]
- inhibition at 100 µM: 0%

SMILES: C[C@]12CC[C@H](O)CC1=CC[C@@H]1[C@@H]2CC[C@]2(C)C(n3cnc4ccccc43)=CC[C@@H]12 [Galeterone]
- inhibition at 100 µM: 31.2%

SMILES: CC[N+](CC)(CC)CCOc1cccc(OCC[N+](CC)(CC)CC)c1OCC[N+](CC)(CC)CC [Gallamine Triethiodide]
- inhibition at 100 µM: 3.8%

SMILES: O=C(O)c1cc(O)c(O)c(O)c1 [Gallic acid]
- inhibition at 100 µM: 0%

SMILES: Cc1cccc(-c2nn3c(c2-c2ccnc4ccc(C(N)=O)cc24)CCC3)n1 [Galunisertib (LY2157299)]
- inhibition at 100 µM: 0%

SMILES: Nc1nc2c(ncn2COC(CO)CO)c(=O)[nH]1 [Ganciclovir]
- inhibition at 100 µM: 49.4%

SMILES: Cc1cc(Nc2cc(CN3CCOCC3)c3nc(C)c(Cc4ccc(Cl)cc4F)n3n2)n[nH]1 [Gandotinib (LY2784544)]
- inhibition at 100 µM: 0%

SMILES: CC(C)c1cc(-c2n[nH]c(=O)n2-c2ccc3c(ccn3C)c2)c(O)cc1O [Ganetespib (STA-9090)]
- inhibition at 100 µM: 1.18%

SMILES: COc1c(N2CCNC(C)C2)c(F)cc2c(=O)c(C(=O)O)cn(C3CC3)c12 (centres unmarked) [Gatifloxacin]
- inhibition at 100 µM: 1.88%

SMILES: CC(C)=CCC/C(C)=C/CC/C(C)=C/CCC(=O)OC/C=C(\C)CCC=C(C)C [Gefarnate]
- inhibition at 100 µM: 5.96%

SMILES: Nc1ccn([C@@H]2O[C@H](CO)[C@@H](O)C2(F)F)c(=O)n1 [Gemcitabine HCl]
- %inhibition: 0%

SMILES: Nc1ccn([C@@H]2O[C@H](CO)[C@@H](O)C2(F)F)c(=O)n1 [Gemcitabine]
- %inhibition: 32.55%

SMILES: Cc1ccc(C)c(OCCCC(C)(C)C(=O)O)c1 [Gemfibrozil]
- inhibition at 100 µM: 45.1%

SMILES: O=c1c(-c2ccc(O)cc2)coc2cc(O)cc(O)c12 [Genistein]
- inhibition at 100 µM: 1.56%

SMILES: C#C[C@]1(O)C=C[C@H]2[C@@H]3CCC4=CC(=O)CC[C@@H]4[C@H]3CC[C@@]21CC [Gestodene]
- inhibition at 100 µM: 0%

SMILES: Oc1cc(O)c(Cl)cn1 [Gimeracil]
- inhibition at 100 µM: 0%

SMILES: O=C(OCC(O)CO)c1ccccc1Nc1ccnc2cc(Cl)ccc12 (centres unmarked) [Glafenine HCl]
- inhibition at 100 µM: 16.2%

SMILES: CCC1=C(C)CN(C(=O)NCCc2ccc(S(=O)(=O)NC(=O)N[C@H]3CC[C@H](C)CC3)cc2)C1=O [Glimepiride]
- inhibition at 100 µM: 22.5%

SMILES: Cc1cnc(C(=O)NCCc2ccc(S(=O)(=O)NC(=O)NC3CCCCC3)cc2)cn1 [Glipizide]
- inhibition at 100 µM: 19.9%

SMILES: N[C@H]1C(O)O[C@H](CO)[C@@H](O)[C@@H]1O (some centres unmarked) [Glucosamine hydrochloride]
- inhibition at 100 µM: 0%

SMILES: N[C@@H](CCC(=O)N[C@@H](CS)C(=O)NCC(=O)O)C(=O)O [Glutathione]
- inhibition at 100 µM: 0%

SMILES: COc1ccc(Cl)cc1C(=O)NCCc1ccc(S(=O)(=O)NC(=O)NC2CCCCC2)cc1 [Glyburide (Glibenclamide)]
- inhibition at 100 µM: 8.25%

SMILES: NCC(=O)O [Glycine]
- inhibition at 100 µM: 0%

SMILES: C[N+]1(C)CCC(OC(=O)C(O)(c2ccccc2)C2CCCC2)C1 (centres unmarked) [Glycopyrrolate]
- inhibition at 100 µM: 0%

SMILES: CC(C)C[C@H](NC(=O)CNC(=O)[C@H](Cc1ccc(O)cc1)NC(=O)[C@H](CO)NC(=O)[C@H](Cc1c[nH]c2ccccc12)NC(=O)[C@H](Cc1cnc[nH]1)NC(=O)[C@@H]1CCC(=O)N1)C(=O)N[C@@H](CCCNC(=N)N)C(=O)N1CCC[C@H]1C(=O)NCC(N)=O [Gonadorelin Acetate]
- inhibition at 100 µM: 0%

SMILES: CN1[C@@H]2CCC[C@H]1C[C@@H](NC(=O)c1nn(C)c3ccccc13)C2 [Granisetron HCl]
- %inhibition: 0%

SMILES: CN1[C@@H]2CCC[C@H]1C[C@@H](NC(=O)c1nn(C)c3ccccc13)C2 [Granisetron]
- %inhibition: 0.5264%

SMILES: C=C[C@@H]1C[C@]1(NC(=O)[C@@H]1C[C@@H]2CN1C(=O)[C@H](C(C)(C)C)NC(=O)O[C@@H]1C[C@H]1CCCCCc1nc3ccc(OC)cc3nc1O2)C(=O)NS(=O)(=O)C1CC1 [Grazoprevir]
- inhibition at 100 µM: 0%

SMILES: COC1=CC(=O)C[C@@H](C)[C@]12Oc1c(Cl)c(OC)cc(OC)c1C2=O [Griseofulvin]
- inhibition at 100 µM: 0%

SMILES: COc1ccccc1O [Guaiacol]
- inhibition at 100 µM: 0%
